# Source: article PMC8479757 (Chemosphere, 2020)
# What was measured:
# [1] = test system: HSA; details: 310 K; cited from earlier work
# [2] = United States population, 2015–2016; cited from earlier work
# [3] = molecular target: bovine serum albumin (BSA) (Bos taurus, UniProt P02769); type: binding; details: 310 K; for critical [PFAS]:[BSA] ratio denoting the shift from binding site to surface adsorption: Δδ begins to plateau
# [4] = estimated; cited from earlier work
# Chain of bovine serum albumin (BSA) (P02769 25-607): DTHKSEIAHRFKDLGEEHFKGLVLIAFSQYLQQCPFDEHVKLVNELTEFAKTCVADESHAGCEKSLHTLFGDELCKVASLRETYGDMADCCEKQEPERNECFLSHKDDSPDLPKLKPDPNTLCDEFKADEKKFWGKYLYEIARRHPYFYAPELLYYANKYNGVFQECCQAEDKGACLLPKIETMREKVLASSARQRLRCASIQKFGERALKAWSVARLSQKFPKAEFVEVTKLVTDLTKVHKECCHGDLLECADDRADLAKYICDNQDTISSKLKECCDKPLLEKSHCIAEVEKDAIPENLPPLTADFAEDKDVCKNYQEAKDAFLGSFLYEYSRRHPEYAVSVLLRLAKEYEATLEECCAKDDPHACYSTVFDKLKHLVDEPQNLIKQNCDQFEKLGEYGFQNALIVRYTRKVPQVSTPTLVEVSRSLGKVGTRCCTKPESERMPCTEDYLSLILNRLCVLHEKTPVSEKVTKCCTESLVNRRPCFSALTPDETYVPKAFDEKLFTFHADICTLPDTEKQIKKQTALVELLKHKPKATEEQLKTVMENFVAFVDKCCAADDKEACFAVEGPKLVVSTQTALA
smiles,measurement,setting,value
CCCCCCCC(=O)O [octanoic acid],Ka for binding to HSA,[1],34 mM⁻¹
"O=C(O)C(F)(F)C(F)(F)C(F)(F)C(F)(F)C(F)(F)C(F)(F)C(F)(F)F [PFOA, perfluorooctanoic acid]",average serum concentration,[2],1.56 µg/L
same,critical [PFAS]:[BSA] ratio denoting the shift from binding site to surface adsorption,[3],12–14
same,Kd,"[3]; Ka (ω, terminal −CF3 position), BSA, pH 7.4 PBS, Ka=Kd^−1",6.45 µM
CCCCCC(=O)O [hexanoic acid],Ka for binding to HSA,[1],15 mM⁻¹
"O=C(O)C(F)(F)C(F)(F)C(F)(F)C(F)(F)C(F)(F)C(F)(F)C(F)(F)C(F)(F)F [PFNA, perfluorononanoic acid]",average serum concentration,[2],1.18 µg/L
same,half-life in humans,[4],2.5 years
same,critical [PFAS]:[BSA] ratio denoting the shift from binding site to surface adsorption,[3],12–14
"O=S(=O)(O)C(F)(F)C(F)(F)C(F)(F)C(F)(F)C(F)(F)C(F)(F)F [PFHxS, perfluorohexanesulfonic acid]",average serum concentration,[2],0.577 µg/L
same,critical [PFAS]:[BSA] ratio denoting the shift from binding site to surface adsorption,[3],12–14
CCCCCCCCCC(=O)O [decanoic acid],Ka for binding to HSA,[1],100 mM⁻¹
"O=S(=O)(O)C(F)(F)C(F)(F)C(F)(F)C(F)(F)C(F)(F)C(F)(F)C(F)(F)C(F)(F)F [PFOS, perfluorooctanesulfonic acid]",average serum concentration,[2],4.72 µg/L
same,half-life in humans,[4],5.4 years
same,"Ka (ω, terminal −CF3 position)","[3]; BSA, pH 7.4 PBS, Ka=Kd^−1",357 mM⁻¹
